Measured values as given in PMC4552745, “Novel Gallate Triphenylphosphonium Derivatives with Potent Antichagasic Activity” (PLoS ONE, 2015).

Key:
[1] = test system: Leishmania brasiliensis; design: method as in PMID 25144225; conditions: in vitro; cited from earlier work
[2] = test system: T. cruzi epimastigotes; design: method as in PMID 17673202; conditions: cited from earlier work
[3] = test system: Trypanosoma brucei; design: method as in PMID 9657042, PMID 9491765; conditions: Trypanosoma brucei models; cited from earlier work
[4] = test system: Trypanosoma cruzi; design: method as in PMID 2121515; conditions: blood contaminated with Trypanosoma cruzi; cited from earlier work
[5] = test system: T. cruzi trypomastigotes (Y strain); test: MTT reduction viability assay on isolated trypomastigotes; format: cell-based, Trypanosoma cruzi; conditions: for EC50: Trypanosoma cruzi, Y strain, 24 hours exposure, MTT assay, mean ± SD, read-out: EC50 T. cruzi trypomastigote; for Selectivity index (VERO/T. cruzi): ratio of EC50 VERO cells to EC50 T. cruzi trypomastigote; for potency relative to nifurtimox: trypomastigote viability, comparison of EC50
Description: (§1) Trypomastigotes (Y strain, DTU T. cruzi II) were obtained from infected VERO cells (Chlorocebus sabaeus kidney fibroblasts obtained from ATCC, ATCC number: CCL-81). The cells were exposed to trypomastigotes (Y strain) at a 3:1 density (trypomastigote:cell). The trypomastigotes were allowed to infect the cells for 24 h, and the supernatant was then extracted. The trypomastigotes were released from VERO cells at 4 days after infection. The parasites were harvested and collected for viability assays. The effect of the drugs on parasite viability was evaluated using the tetrazolium salt (MTT) reduction assay. […] Alternatively, VERO cells attached to the surface of 96-well plates were washed and incubated with MTT (5 mg/mL). After incubation for 4 h at 37°C, the generated formazan crystals were dissolved with 100 μL of 10% (w/v) sodium dodecyl sulfate (SDS) in 0.01 M HCl. The plates were then incubated overnight at 37°C, and the optical density (OD) was determined using a microplate reader (Labsystems Multiskan MS, Finland) at 570 nm. Under these conditions, the OD is directly proportional to the number of viable cells in each well [33, 34]. All of the experiments were performed at least three times. […] The data from each experiment were plotted using the formazan absorbance versus the log of the concentration, and the plot was fitted to the dose-response (four-parameters) equation using the software Graph Pad Prism V5.0, obtaining the EC50 value per drug and per experiment. The data are expressed as the mean ± DS of the EC50s obtained from each experiment.

[6] = test system: VERO cells; test: MTT reduction viability assay on VERO cells; format: cell-based; conditions: Chlorocebus sabaeus, 24 hours exposure, mean ± SD
Description: as §1, with “The” for “Trypomastigotes (Y strain, DTU T. cruzi II) were obtained from infected VERO cells (Chlorocebus sabaeus kidney fibroblasts obtained from ATCC, ATCC number: CCL-81). The cells were exposed to trypomastigotes (Y strain) at a 3:1 density (trypomastigote:cell). The trypomastigotes were allowed to infect the cells for 24 h, and the supernatant was then extracted. The trypomastigotes were released from VERO cells at 4 days after infection. The parasites were harvested and collected for viability assays. The”

[7] = test system: T. cruzi in infected RAW 264.7 cells; test: Parasite DNA load by real-time PCR in infected RAW cells; format: cell-based, Trypanosoma cruzi; conditions: infected RAW cells, 48 hours after treatment, Fig 4
Text: DNA from infected RAW cells (murine macrophages, ATCC number: TIB-71) was isolated using Wizard Genomic DNA Purification Kit (Promega, USA) following the manufacturer’s instructions. DNA was quantified through […] absorbance measurements using a Varioskan spectrophotometer (Thermo Scientific, USA). To evaluate the parasite DNA load, we used a TaqMan-Duplex system, as described previously. To amplify an 84-bp T. cruzi satellite DNA sequence, we used the following primers: TcSt 4-Fw (5’-[…]-3’) and TcSt 1-Rev (5’-[…]-3’) and the TcSt-1 probe (5’-FAM-[…]-BHQ-1-3’). As an endogenous control, we used the Mus-F (5’-[…]-3’) and Mus-R (5’-[…]-3’) primers coupled with the MM-1 probe (5’-HEX-AAAGCATCTGCCTCCG-BHQ-1-3’) to amplify a 67-bp Mus musculus GAPDH sequence. The primers and probes were designed using Primer Express 3.0 Software (Applied Biosystems, USA) and manufactured by Integrated DNA Technologies (Coralville, IA, USA). The PCR reactions were performed using an ABI7300 real-time thermocycler (Applied Biosystems, USA). […] ROX was used as a reference dye. For both TaqMan assays, the thermal cycle consisted of a polymerase activation step carried out at 95°C for 10 min (one cycle) and a two-step amplification phase: 95°C for 15 s and 55°C for 45 s (40 cycles). Fluorescence was measured at the end of each amplification cycle. The data were analyzed using 7300 System SDS software with the SDS relative quantitation plug-in (Applied Biosystems, USA). All of the data were analyzed by the 2^-∆∆CT method, comparing the CTs of the T. cruzi gene versus that of GAPDH as well as comparing all of the samples with the controls. The parasite load is expressed as the relative DNA load compared with the controls.

[8] = test system: T. cruzi trypomastigotes (Y strain) mitochondrial permeability transition pore; test: Mitochondrial permeability transition pore opening (calcein AM / CoCl2); format: cell-based, Trypanosoma cruzi; conditions: 5 μM, 1 hour, Fig 6B
Description: The opening of mitochondrial permeability transition pores was assessed using the calcein AM probe, adapting the method described by Huang et al (2014). Calcein-AM is a lipophilic probe that can enter the cell, including the mitochondria, and is then cleaved by cellular esterases, releasing the fluorescent probe calcein. T. cruzi trypomastigotes (Y strain, 5 x 10^6 parasites/mL) were stained with 100 nM calcein AM (Molecular Probes, Applied Biosytems, USA) and incubated at 37°C for 15 min in the presence of […] of CoCl2 to quench the cytosolic fluorescence of calcein. Then, the parasites were washed with PBS and resuspended in RPMI medium, without phenol red, supplemented with 0.3 mM of Ca^+2. The parasites were then seeded in 24-well plates and exposed to the different compounds (TPP^+-C8, TPP^+-C10, TPP^+-C11, and TPP^+-C12) at 1 or 5 μM for 1 hour. As a positive control, one group was exposed to ionomycin (0.5 μM). The samples were measured using a FACS Aria III flow cytometer (BD Biosciences, USA) with the 494/517 filter to detect calcein fluorescence. For every measurement, 5,000 events were recorded. The raw flow cytometry data were analyzed using FACSDiva 6.1 software (BD Biosciences). The results were analyzed using the median fluorescence intensity (MFI) from the frequency histograms. Thus, we used the median intensity of the control group (parasites incubated with calcein AM and CoCl2) to establish 100% of mitochondrial fluorescence, thereby establishing percent ratios between the treatment groups and the control.

SMILES	concentration at which the effect on viability is reached [1]	concentration at which the antiproliferative effect is observed [2]	EC50 [3] [µM]	concentration range at which effects are exerted [4]	EC50 [5] [µM]	Selectivity index (VERO/T. cruzi) [5]	potency relative to nifurtimox [5]	EC50 [6] [µM]	parasite load (qPCR) [7]	mitochondrial calcein fluorescence (median fluorescence intensity) [8]
O=C(O[C@@H]1Cc2c(O)cc(O)cc2O[C@@H]1c1cc(O)c(O)c(O)c1)c1cc(O)c(O)c(O)c1 [EGCg, (-)-epigallocatechin 3-O-gallate]	over 60 μM	over 500 μM								
O=C(O)c1cc(O)c(O)c(O)c1 [GA, Gallic acid]			> 30	millimolar range						
O=C(OCCCCCCCC[P+](c1ccccc1)(c1ccccc1)c1ccccc1)c1cc(O)c(O)c(O)c1.[Br-] [TPP^+-C8, triphenyl(8-((3,4,5-trihydroxybenzoyl)oxy)-octyl) phosphonium bromide]					4.8 ± 0.9	> 21	almost equal in potency to nifurtimox	> 100	the lowest concentrations of TPP^+-C8 increased the parasite load	
O=C(OCCCCCCCCCCC[P+](c1ccccc1)(c1ccccc1)c1ccccc1)c1cc(O)c(O)c(O)c1.[Br-] [TPP^+-C11, triphenyl(11-((3,4,5-trihydroxybenzoyl)oxy)-undecyl) phosphonium bromide]					9.2 ± 0.1	> 11	almost equal in potency to nifurtimox	> 100	reduced the parasite load in a concentration-dependent manner	41 % of the control
CC1CS(=O)(=O)CCN1/N=C/c1ccc([N+](=O)[O-])o1 (stereo not drawn) [Nifurtimox, reference compound]					4.1 ± 0.9	> 24		> 100		
